Source: a melting point compilation (Tetko et al.; mined from patent text by program, amines drawn as free bases though some values may be those of a salt)

Compound	melting point
CN(Cc1ccc(S(C)=O)cc1)S(=O)(=O)c1cn(S(=O)(=O)N(C)C)c(C#N)n1 (stereo not drawn)	126 °C
Cc1cc(-n2ccnc2)c2cccc(OCc3c(Cl)ccc(N(C)C(=O)CN4C(=O)c5ccccc5C4=O)c3Cl)c2n1	200 to 203 °C
O=C1C(=CO)CC[C@H]2C(=O)C(=CO)CC[C@H]12	155 to 157 °C
O=C(NC(=O)c1c(O)cccc1F)Nc1ccc(Cl)cc1	215 °C
CC(C)(CCCOc1cccc(C(F)(F)F)c1)C(=O)O	96 to 97 °C
Cc1occc1C(=O)Nc1ccc(Cl)c(C=NN2CCOCC2)c1	121 to 123 °C
Cc1cccc(NC(=O)NC2N=C(CC(C)C)c3cccc(C)c3N(CC(=O)N3CCCCCCC3)C2=O)c1 (stereo not drawn)	132 to 133 °C
CN(C)CCc1ccc(O)c2c1=NS(=O)(=O)N=2	202 to 205 °C
COc1ccc2c(c1)Cc1cc(C(C)C(=O)O)ccc1-2 (stereo not drawn)	179 to 181 °C
Cc1ccc(Nc2nc(C)cs2)nc1	212 to 214 °C
N#Cc1c(N2CCCCC2)cc(-c2ccc3ccc4cccc5ccc2c3c45)c2c1-c1ccccc1C2	114 to 116 °C
Cc1ccc(S(=O)(=O)OC[C@H]2COc3ccc([N+](=O)[O-])c(CC(=O)O)c3O2)cc1	158 to 159 °C
CC(=O)N[C@@H](CSC(C)=O)C(=O)NCCSC(=O)c1ccccc1	166 to 168 °C
OC(CCN1CC=C(c2ccc(Cl)cc2)CC1)c1ccc(Cl)cc1 (stereo not drawn)	154 to 155 °C
O=c1ccn(-c2ccccc2F)nc1-c1ccnn1-c1ccccc1	124 to 125 °C
Cc1cc(C)c2cccc(OCc3c(Cl)ccc(S(=O)(=O)N4CCC[C@H]4C(=O)NCCCNC(=O)c4cccc(C(N)=NO)c4)c3Cl)c2n1	108 to 110 °C
O=C(N1CCC1)N1CC(Oc2cccc(C(F)(F)F)c2)C1	65 to 68 °C
CCCC(C)(CCC)C(=O)O[C@H]1C[C@H](O)C=C2C=C[C@H](C)[C@H](CC[C@@H]3C[C@@H](O)CC(=O)O3)[C@H]21	109 to 111 °C
CC(C)(N)c1ccc(-c2nc(Nc3ccc(CCN4CCOCC4)cc3)ncc2C#N)cc1	156 °C

Compound	melting point
Cc1c(C)c(N2CCN(c3ccc(CN)cc3)CC2)c(C)c2c1OC(C)(C)C2	156 to 158 °C
CCCc1cc(OCC)c2c(c1OC)S(=O)(=O)N(CSc1nnnn1-c1ccccc1)C2=O	110 to 111 °C
CC(=O)OCC(=O)C1=CCC2C3CCC4=CC(=O)CCC4(C)C34OC4CC12C (stereo not drawn)	129 to 130 °C
CC(C)(O)CCCCCc1ccc(CCc2cc(O)cc(O)c2)cc1	128 to 130 °C
CCCCCCCCCCCCc1cnn(C(C(=O)Nc2c(OC)cc(OC)cc2OC)c2ccccc2)n1 (stereo not drawn)	123 to 125 °C
CSc1sc(-c2nnco2)c2c1C(=O)CC(C)(C)C2	185 to 189 °C
COC(=O)c1cscc1NC(=O)COc1ccc(I)cc1	135 to 137 °C
CCOCCOC(=O)C(=O)Nc1nc(-c2cc3ccc(O)cc3oc2=O)cs1	217 to 218 °C
O=C1O[C@@H](CNC(=S)C(F)F)CN1c1cc(F)c(N2CCS(=O)(=O)CC2)c(F)c1	88 to 90 °C
Cc1ccccc1N1CCN(CCn2c(=O)[nH]c3ccsc3c2=O)CC1	212 to 214 °C
O=[N+]([O-])c1nccn1CC(O)CN1C2CCCCCC21 (stereo not drawn)	91 to 91.5 °C
O=C(OC(=O)c1cc2cc(O)ccc2s1)c1ccccc1	235 to 236 °C
CCOC(=O)/C(=N\OCCN=[N+]=[N-])c1csc(N)n1	123 to 124 °C
Cc1cccc(C)c1NCCN(C)CC(O)COc1cccc2[nH]ncc12 (stereo not drawn)	120 to 121 °C
CC(C)(C)N1CC(=O)Nc2ccc(Br)cc2C1=O	205 to 208 °C
CC1C[C@H]2[C@@H](O1)[C@H](N=[N+]=[N-])C(=O)N2Cc1ccccc1 (relative stereo)	70 to 73 °C
COc1ccc2c(c1)C=C(C=O)CO2	49 to 50 °C
CC1CCC2(C)C(=CCC3C2CCC2(C)C(C(=O)CN)CCC32)C1 (stereo not drawn)	139 °C
Cn1cc(Br)cc(Nc2ccc(N3CCN(C(=O)OC(C)(C)C)CC3=O)cn2)c1=O	130 to 132 °C
